Data from patent EP0790989B1, “CERTAIN SUBSTITUTED BENZYLAMINE DERIVATIVES; A NEW CLASS OF NEUROPEPTIDE Y1 SPECIFIC LIGANDS” (PFIZER INC., priority 1994, dated 1996).
Counter-ions that a name gives are not always drawn.

The compounds below were run against T1, human NPY1 receptors (Homo sapiens, UniProt P25929) (assay: Assay for Human NPY1 receptor binding activity ([125I]PYY binding to SK-N-MC cells)). Conditions: IC50, [125I]PYY (~50 pM) binding to confluent SK-N-MC cells, 3 hour incubation at room temperature.
T1 construct: SK-N-MC cells were purchased from ATCC (Rockville, MD); host or cells: SK-N-MC cells (human neuroepithelioma line), intact confluent monolayers
T1 sequence (P25929 1-384): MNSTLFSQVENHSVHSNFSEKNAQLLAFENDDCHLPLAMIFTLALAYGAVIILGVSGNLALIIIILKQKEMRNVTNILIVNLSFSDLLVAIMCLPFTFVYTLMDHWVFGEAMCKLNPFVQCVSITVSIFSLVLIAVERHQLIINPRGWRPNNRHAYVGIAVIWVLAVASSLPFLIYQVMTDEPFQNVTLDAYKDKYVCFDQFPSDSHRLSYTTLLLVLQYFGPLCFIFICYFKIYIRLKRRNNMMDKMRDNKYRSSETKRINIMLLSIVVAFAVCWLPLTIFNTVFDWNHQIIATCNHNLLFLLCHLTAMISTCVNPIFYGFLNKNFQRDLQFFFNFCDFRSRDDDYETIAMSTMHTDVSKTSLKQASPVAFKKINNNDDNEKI
Experimental: The procedure used is similar to that described by Gordon et al. (J. Neurochem. 55:506-513, 1990). SK-N-MC cells were purchased from ATCC (Rockville, MD). Cells were maintained at 37°C and 5% CO2 in Dulbecco's modified essential media (DMEM) with L-glutamine and 110 mg/L sodium pyruvate, which was supplemented with 10% fetal bovine serum and 25 mM HEPES (pH 7.3). The binding assay was performed in 24-well plates (Falcon) when the cells were confluent. Taking care to not disturb the cells on the bottom of the wells, the media was aspirated, and 0.5 ml of Dulbecco's phosphate buffered saline (DPBS) with calcium and magnesium were added to each well. The DPBS was aspirated and an additional aliquot of DPBS was added and aspirated. To begin the assay, binding buffer consisting of serum-free DMEM containing 0.5% bovine serum albumin, 0.1% bacitracin and 0.1 mM phenylmethylsulfonylfluoride was added to each well. The cells and the binding buffer preincubated for 30 minutes at room temperature, at which point the drug dilution and [^125I]PYY (NEN-DuPont: 50000 -75000 cpm ∼ 50 pM) were added to yield a final volume of 250 ul. Nonspecific binding was defined with […] NPY (porcine or human, Bachem California). After a 3 hour incubation at room temperature, the plates were then put on ice and the wells were aspirated. The cells were washed 4-6 times with 0.5 ml of ice-cold DPBS. A dilute solution of Triton X-100 (1%) was then added to each well. After approximately 1 hour at room temperature, an aliquot from each well was transferred to a 12x75 mm testtube, and the amount of [^125I] was quantitated on a gamma counter with an efficiency of 80-85% (Genesys 5000, Laboratory Technologies). IC50 values were calculated with the non-linear curve fitting program RS/1 (BBN Software Products Corp., Cambridge, MA).
In the case of `CCOc1cccc(C2(N3CCN(c4ccccc4)CC3)CCC(CC)CC2)c1` (stereo not drawn) [Compound 21, 1-(3-Ethoxyphenyl)-1-(4-phenylpiperazin-1-yl)-4-ethyl-cyclohexane dihydrochloride], the IC50 is reported as 525 nM.
`CCOc1cccc(C2(N3CCN(c4ccccc4)CC3)CCC(CC)CC2)c1` (stereo not drawn) [Compound 20, 1-(3-Ethoxyphenyl)-1-(4-phenylpiperazin-1-yl)-4-ethyl-cyclohexane dihydrochloride] gave an IC50 of 76 nM.
Work on `COCOc1cccc(C2(N3CCN(c4ccccc4)CC3)CCC(C)CC2)c1` (stereo not drawn) [Compound 29, 1-(3-Methoxymethoxyphenyl)-1-(4-phenylpiperazin-1-yl)-4-methyl-cyclohexane dihydrochloride] yielded an IC50 of 39 nM.
`CCOc1cccc(C2(N3CCN(c4ccccc4)CC3)CCCCC2)c1` [Compound 9, 1-(3-Ethoxyphenyl)-1-(4-phenylpiperazin-1-yl)-cyclohexane dihydrochloride] showed an IC50 of 137 nM.
For `CCOc1cccc(C2(N3CCN(c4ccccc4)CC3)CCC(C)CC2)c1` (stereo not drawn) [Compound 18, 1-(3-Ethoxyphenyl)-1-(4-phenylpiperazin-1-yl)-4-methyl-cyclohexane dihydrochloride], the IC50 was 75 nM.
`COc1cccc(C2(N3CCN(c4ccccc4)CC3)CCC(C)CC2)c1` (stereo not drawn) [Compound 13, 1-(3-Methoxyphenyl)-1-(4-phenylpiperazin-1-yl)-4-methyl-cyclohexane dihydrochloride] showed an IC50 of 67 nM.
